Assay results taken from patent US20200239398A1, “METHYLENE-CYCLOALKYLACETATE DERIVATIVES AND THEIR USE IN TREATMENT OF NEUROTROPIC CONDITIONS” (Yissum Research Development Company of The Hebrew …, priority 2018, published 2020).
Where “and” joins values, the source holds several entries; their conditions need not be identical. Equal entries are not always repeated. Where two headings read alike, the source gives them in different places.

Tests used:
male C57BL/6 mice = experiment: Sensory motor/neurological-neurobehavioral tests (mNSS); assay type: in vivo; conditions: 250 mg/kg iv; for Angle of increase / Beam balance (score) / Hind limb (placing test score) / mNSS / Foot fault / Self-suspension time: individual animal; for Foot fault / Self-suspension time: listed as HU-MCA-13, 250 mg/kg
Procedure: This pilot study was conducted to obtain acute information of the dose toxicity of HU-MCA-13 (Compound 13 in Scheme 1) in male mice. Male C57BL/6 mice, were injected intravenously with 0.2 ml of HU-MCA-13 in a dose of 250 mg/kg. Mice were monitored for 4 consecutive weeks for autonomic and neurotoxicity symptoms. The mortality and changes on body weight, clinical signs, gross observation, were monitored up to 30 days after treatment. No mortality was found at this high dose of 250 mg/kg. […] The mice were examined once a week for autonomic symptoms by measuring salivation, urinary delivery, pupillary constriction, heart rate, blood pressure, and hair contraction. […] Occurrences of either flaccid or spastic paralysis of the legs were not observed. […] Furthermore, no mice sudden deaths occurred within 24 hours after the injection or during the 4 weeks of observation. […] Sensory motor tests were scored individually and according to the modified neurologic function severity score (mNSS). The data from each individual test and the total score calculated from individual tests that make up the mNSS were measured. The following assays were used: a. beam balance test—mice were placed on a 1-inch wide beam for 60 seconds. A normal response is balance with steady posture for 60 seconds (a score of 0). Deficits are scored if the rat: grasps the side of the beam (a score of 1), hugs the beam and one limb falls down from the beam (a score of 2), hugs the beam and two limbs fall off the beam (a score of 3), attempts to balance on the beam, but falls off from 60 seconds (a score of 4), attempts to balance on the beam but falls off from […], or falls off with no attempt to balance or hang on the beam in <20 seconds (a score of 6); b. foot fault test—forelimb movement dysfunction, while walking on elevated metal grids, was monitored. The animal was placed on horizontal grids (85.5×26.5×20) cm with a glass enclosure for observation. With each weight bearing step, the forelimb can fall or slip between the metal support bars, an event recorded as a foot fault. The total number of forelimb steps and the total number of foot faults were recorded. The percentage of forelimb foot faults to the total steps that occurred within 2 minutes marks the test results; c. hind limb placing test—This test monitors reposition of hind limbs placed down and away from the table edge. The ability to retrieve and place the hind limbs back onto the table was scored. Immediate and complete limb retrieval was scored 0, delayed (>2 seconds) limb retrieval and/or interspersed flailing was scored 1, and no limb retrieval was scored 2; d. Increasing platform angle to slide test—This test monitors the strength and stability of resistance to slide down an inclined platform. It deploys a clean wooden board (60 cm by 40 cm) positioned horizontally. Mice were placed on the board with head facing up the increasing incline. The board then swings to increase the degree of inclination the rat experiences until slipping down the board feet first. The degree of the angle at which the rat relinquishes their grip/stance on the board (slips down) constitute the test results; e. the forelimb whole body suspension test—The test measures grip strength by duration of suspension by forepaws. The rat is suspended on a metal bar (diameter 5 mm) which it tightly holds onto by its forelimbs. The time (seconds) during which each rat could sustain its body weight while holding onto the bar is recorded. The mice drop from the bar onto soft material with no harm. The test was repeated three times and a mean result per rat was used as the score. Cumulatively these sensory motor/neurological findings indicate acute tolerability of 250 mg/kg HU-MCA-13 iv injection in Male C57BL/6 mice.

[1] = molecular target: T1, Acetylcholinesterase (AChE) (Homo sapiens, UniProt P22303); experiment: SAFETYscan AChE Enzymatic; assay type: biochemical; conditions: Inhibitor mode; 10 μM HU-MCA-13; read-out: Maximal Response
T1 construct: DiscoverX (SAFETYscan contract panel)

[2] = tested on: Gamma-aminobutyric acid Receptor A (GABAA); assay type: cell-based; conditions: 10 μM HU-MCA-13
[3] = molecular target: T2, Lymphocyte Cell-Specific Protein-Tyrosine Kinase (Src family) (LCK) (Homo sapiens, UniProt P06239); experiment: SAFETYscan LCK kinase Binding; conditions: Inhibitor mode, 10 μM HU-MCA-13, read-out: Maximal Response
T2 construct: DiscoverX (KINOMEscan)
T2 sequence (P06239 whole entry): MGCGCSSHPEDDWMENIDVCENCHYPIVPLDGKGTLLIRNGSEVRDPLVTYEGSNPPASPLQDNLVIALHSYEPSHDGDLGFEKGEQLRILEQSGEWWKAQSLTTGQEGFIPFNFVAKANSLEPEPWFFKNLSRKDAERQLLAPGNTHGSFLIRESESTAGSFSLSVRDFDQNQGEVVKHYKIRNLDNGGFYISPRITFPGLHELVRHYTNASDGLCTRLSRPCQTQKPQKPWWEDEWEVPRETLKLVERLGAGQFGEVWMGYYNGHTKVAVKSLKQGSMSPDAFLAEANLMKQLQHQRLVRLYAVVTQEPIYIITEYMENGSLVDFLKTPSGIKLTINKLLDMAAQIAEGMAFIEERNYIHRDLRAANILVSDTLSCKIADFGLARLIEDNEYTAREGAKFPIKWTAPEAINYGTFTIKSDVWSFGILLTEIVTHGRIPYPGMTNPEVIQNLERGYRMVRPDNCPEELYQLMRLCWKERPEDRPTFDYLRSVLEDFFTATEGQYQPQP

T1 sequence (P22303 32-614): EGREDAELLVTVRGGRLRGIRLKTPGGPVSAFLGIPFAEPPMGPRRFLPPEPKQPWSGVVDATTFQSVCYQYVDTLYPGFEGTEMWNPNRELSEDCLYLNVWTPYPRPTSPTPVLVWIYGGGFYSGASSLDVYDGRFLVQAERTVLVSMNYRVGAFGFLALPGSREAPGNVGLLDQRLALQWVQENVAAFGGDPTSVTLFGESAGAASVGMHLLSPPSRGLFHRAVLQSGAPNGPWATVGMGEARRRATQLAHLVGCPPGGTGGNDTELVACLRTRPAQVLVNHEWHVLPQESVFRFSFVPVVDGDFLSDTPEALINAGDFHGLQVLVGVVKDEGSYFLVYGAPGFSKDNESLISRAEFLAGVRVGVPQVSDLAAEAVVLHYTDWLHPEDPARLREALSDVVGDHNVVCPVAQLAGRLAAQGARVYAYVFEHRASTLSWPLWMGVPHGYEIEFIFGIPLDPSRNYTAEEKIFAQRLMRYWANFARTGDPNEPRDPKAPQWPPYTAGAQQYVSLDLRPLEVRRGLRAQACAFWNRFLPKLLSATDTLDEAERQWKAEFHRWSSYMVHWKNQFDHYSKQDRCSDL

In the case of `C=CCC1CCC[C@@H](CCC(=O)O)C1=C` (some centres unmarked) [Compound 13], the sensory motor/neurological performance (male C57BL/6 mice; weekly routine motor tests) is reported as “no neurological losses were observed”, the Angle of increase (male C57BL/6 mice; Day 0) is reported as 35 degrees and the “Beam balance (score)” value (male C57BL/6 mice; Day 0) is reported as 0. The “Hind limb (placing test score)” value (male C57BL/6 mice; Day 0) was 0, the mNSS (male C57BL/6 mice; Day 0) was 0 and the Foot fault (male C57BL/6 mice; Day 0) was 0/34 and 0/41 and 0/38 and 1/48. For the same compound, the Self-suspension time (male C57BL/6 mice; Day 0) was 8 seconds and 10 seconds (2×) and 9 seconds, the Angle of increase (male C57BL/6 mice; Day 1) was 35 degrees and the “Beam balance (score)” value (male C57BL/6 mice; Day 1) was 0. For the same compound, the “Hind limb (placing test score)” value (male C57BL/6 mice; Day 1) was 0, the mNSS (male C57BL/6 mice; Day 1) was 0 and the Foot fault (male C57BL/6 mice; Day 1) was 0/20 and 0/15 and 0/34 and 0/14. For the same compound, the Self-suspension time (male C57BL/6 mice; Day 1) was 14 seconds and 12 seconds (2×) and 15 seconds, the Angle of increase (male C57BL/6 mice; Day 5) was 35 degrees and the “Beam balance (score)” value (male C57BL/6 mice; Day 5) was 0. For the same compound, the “Hind limb (placing test score)” value (male C57BL/6 mice; Day 5) was 0, the mNSS (male C57BL/6 mice; Day 5) was 0 and the Foot fault (male C57BL/6 mice; Day 5) was 2/50 and 1/47 and 0/48 and 0/36. The Self-suspension time (male C57BL/6 mice; Day 5) was 13 seconds (2×) and 15 seconds and 14 seconds, the Emax [1] was 4.27% and the “Maximal Response” value ([2]; Blocker mode) was 7.74%. The “Maximal Response” value ([2]; Opener mode) was 3.68% and the Emax [3] was 12.8%.
